Reference: US7893055B2, “HIV integrase inhibitors” (priority 2006, dated 2011)

What follows are compounds tested against T1, HIV-integrase (Human immunodeficiency virus type 1 group M subtype B, UniProt P12497) (assay: HIV-Integrase Inhibition Activity (SPA strand transfer assay)). Settings: recombinant integrase, SPA beads, P33 labeled target DNA; read-out: Activity (IC50 class, HIV-integrase inhibition).
T1 construct: Recombinant integrase (0.26 ng) was incubated with the beads
Type: biochemical
Method: HIV-Integrase InhibitionActivity. To evaluate in-vitro activity against HIV-integrase, 5 pmole of biotin labeled substrate DNA was bound to 100 μg of Streptavidin coated PVT SPA beads (Amersham Pharmacia Biotech). Recombinant integrase (0.26 ng) was incubated with the beads for 90 min at 37° C. Unbound enzyme was removed by washing the complex followed by addition of inhibitors and 0.1 fmol of P33 labeled target DNA. The reaction was stopped by adding EDTA to a final concentration of 10 mM. Samples were counted in TopCountNXT (Packard) and the CPM was used as a measure of integration. The reaction condition was as described in A. Engelman and R. Craigie, J. Virol. 69, 5908-5911 (1995). The sequences of substrate and target DNA were described in Nucleic Acid Research 22, 1121-1122 (1994). Activity equal to A refers to a compound having IC50=0.002 to 0.10 μM while B and C denote compounds having IC50=0.1 to 1.0 μM and IC50≧1.0 μM respectively.
With “Pyrimido[2,1-c][1,4]oxazine-2- carboxamide, 4,6,7,9-tetrahydro-3- hydroxy-N-[3-(5-methoxy-1H- indol-3-yl)propyl]-9,9-dimethyl-4- oxo- [Example 52]” the IC50 was at least 1 µM. In the case of Cc1ncsc1CNC(=O)c1nc2n(c(=O)c1O)CCOC2(C)C [Example 23, Pyrimido[2,1-c][1,4]oxazine-2-carboxamide, 4,6,7,9-tetrahydro-3-hydroxy-9,9-dimethyl-N-[(4-methyl-5-thiazolyl)methyl]-4-oxo-], the IC50 is reported as at least 1 µM. In the case of CC1(C)OCCn2c1nc(C(=O)NCc1ccco1)c(O)c2=O [Example 38, Pyrimido[2,1-c][1,4]oxazine-2-carboxamide, N-(2-furanylmethyl)-4,6,7,9-tetrahydro-3-hydroxy-9,9-dimethyl-4-oxo-], the IC50 is reported as 0.002 to 0.1 µM. Work on CC1(C)OCCn2c1nc(C(=O)NCc1cc(-c3ccccc3)no1)c(O)c2=O [Example 89, 3-Hydroxy-9,9-dimethyl-4-oxo-N-((3-phenyl-5-isoxazolyl)methyl)-4,6,7,9-tetrahydropyrimido[2,1-c][1,4]oxazine-2-carboxamide] yielded an IC50 of at least 1 µM. Cc1cc(CNC(=O)c2nc3n(c(=O)c2O)CCOC3(C)C)nn1C [Example 2, Pyrimido[2,1-c][1,4]oxazine-2-carboxamide, N-[(1,5-dimethyl-1H-pyrazol-3-yl)methyl]-4,6,7,9-tetrahydro-3-hydroxy-9,9-dimethyl-4-oxo-] was tested, and the IC50 was 0.1 to 1 µM. “Pyrimido[2,1-c][1,4]oxazine-2- carboxamide, N-[(5,6-dichloro- 1H-benzimidazol-2-yl)methyl]- 4,6,7,9-tetrahydro-3-hydroxy-9,9- dimethyl-4-oxo- [Example 50]” showed an IC50 of at least 1 µM. “Pyrimido[2,1-c][1,4]oxazine-2- carboxamide, 4,6,7,9-tetrahydro-3- hydroxy-N-[[3-(4-methoxyphenyl)- 5-isoxazolyl]methyl]-9,9-dimethyl- 4-oxo- [Example 48]” gave an IC50 of at least 1 µM. Compound CCCn1ccc(CNC(=O)c2nc3n(c(=O)c2O)CCOC3(C)C)n1 [Example 93, 3-Hydroxy-9,9-dimethyl-4-oxo-N-((1-propyl-1H-pyrazol-3-yl)methyl)-4,6,7,9-tetrahydropyrimido[2,1-c][1,4]oxazine-2-carboxamide] has an IC50 of 0.1 to 1 µM. Work on Cc1ccc(CNC(=O)c2nc3n(c(=O)c2O)CCOC3(C)C)s1 [Example 29, Pyrimido[2,1-c][1,4]oxazine-2-carboxamide, 4,6,7,9-tetrahydro-3-hydroxy-9,9-dimethyl-N-[(5-methyl-2-thienyl)methyl]-4-oxo-] yielded an IC50 of 0.002 to 0.1 µM. In the case of “Pyrimido[2,1-c][1,4]oxazine-2- carboxamide, N-[[3-(4- chlorophenyl)-5- isoxazolyl]methyl]-4,6,7,9- tetrahydro-3-hydroxy-9,9- dimethyl-4-oxo- [Example 45]”, the IC50 is reported as at least 1 µM. Compound “Pyrimido[2,1-c][1,4]oxazine-2- carboxamide, 4,6,7,9-tetrahydro-3- hydroxy-9,9-dimethyl-4-oxo-N- (1H-pyrazol-3-ylmethyl)- [Example 69]” has an IC50 of 0.1 to 1 µM. “Pyrimido[2,1-c][1,4]oxazine-2- carboxamide, 4,6,7,9-tetrahydro-3- hydroxy-N-[2-(5-hydroxy-1H- indol-3-yl)ethyl]-9,9-dimethyl-4- oxo- [Example 51]” gave an IC50 of at least 1 µM. Compound Cc1ccc(CNC(=O)c2nc3n(c(=O)c2O)CCN(C)C32CCC2)o1 [Example 77, 3′-Hydroxy-8′-methyl-N-((5-methyl-2-furyl)methyl)-4′-oxo-7′,8′-dihydro-4′H,6′H-spiro[cyclobutane-1,9′-pyrazino[1,2-a]pyrimidine]-2′-carboxamide] has an IC50 of 0.002 to 0.1 µM. CNC(=O)c1ccoc1CNC(=O)c1nc2n(c(=O)c1O)CCOC2(C)C [Example 12, Pyrimido[2,1-c][1,4]oxazine-2-carboxamide, 4,6,7,9-tetrahydro-3-hydroxy-9,9-dimethyl-N-[[3-[(methylamino)carbonyl]-2-furanyl]methyl]-4-oxo-] was tested, and the IC50 was 0.002 to 0.1 µM. Work on CC(=O)n1nc(CNC(=O)c2nc3n(c(=O)c2O)CCOC3(C)C)c2ccccc21 [Example 81, N-((1-Acetyl-1H-indazol-3-yl)methyl)-3-hydroxy-9,9-dimethyl-4-oxo-4,6,7,9-tetrahydropyrimido[2,1-c][1,4]oxazine-2-carboxamide] yielded an IC50 of 0.002 to 0.1 µM. Work on CC1(C)OCCn2c1nc(C(=O)NCC1Cc3ccccc3O1)c(O)c2=O (stereo not shown) [Example 76, N-(2,3-dihydro-1-benzofuran-2-ylmethyl)-3-hydroxy-9,9-dimethyl-4-oxo-4,6,7,9-tetrahydropyrimido[2,1-c][1,4]oxazine-2-carboxamide] yielded an IC50 of 0.002 to 0.1 µM. CC1(C)OCCn2c1nc(C(=O)NCc1nc3ccccc3[nH]1)c(O)c2=O [Example 22, Pyrimido[2,1-c][1,4]oxazine-2-carboxamide, N-(1H-benzimidazol-2-ylmethyl)-4,6,7,9-tetrahydro-3-hydroxy-9,9-dimethyl-4-oxo-] was tested, and the IC50 was at least 1 µM. CC1(C)OCCn2c1nc(C(=O)NCc1csc(-c3ccc(Cl)cc3)n1)c(O)c2=O [Example 4, Pyrimido[2,1-c][1,4]oxazine-2-carboxamide, N-[[2-(4-chlorophenyl)-4-thiazolyl]methyl]-4,6,7,9-tetrahydro-3-hydroxy-9,9-dimethyl-4-oxo-] was tested, and the IC50 was 0.1 to 1 µM. Cc1nn(C)c(C)c1CNC(=O)c1nc2n(c(=O)c1O)CCOC2(C)C [Example 39, Pyrimido[2,1-c][1,4]oxazine-2-carboxamide, 4,6,7,9-tetrahydro-3-hydroxy-9,9-dimethyl-4-oxo-N-[(1,3,5-trimethyl-1H-pyrazol-4-yl)methyl]-] showed an IC50 of 0.1 to 1 µM. In the case of “Pyrimido[2,1-c][1,4]oxazine-2- carboxamide, N-[(4-chloro-1- ethyl-1H-pyrazol-5-yl)methyl]- 4,6,7,9-tetrahydro-3-hydroxy-9,9- dimethyl-4-oxo- [Example 71]”, the IC50 is reported as 0.1 to 1 µM. In the case of CC1(C)OCCn2c1nc(C(=O)NCc1cn3ccccc3n1)c(O)c2=O [Example 15, Pyrimido[2,1-c][1,4]oxazine-2-carboxamide, 4,6,7,9-tetrahydro-3-hydroxy-N-(imidazo[1,2-a]pyridin-2-ylmethyl)-9,9-dimethyl-4-oxo-], the IC50 is reported as 0.002 to 0.1 µM. Compound CC1(C)OCCn2c1nc(C(=O)NCc1ccc(C(=O)N3CCOCC3)o1)c(O)c2=O [Example 17, Pyrimido[2,1-c][1,4]oxazine-2-carboxamide, 4,6,7,9-tetrahydro-3-hydroxy-9,9-dimethyl-N-[[5-(4-morpholinylcarbonyl)-2-furanyl]methyl]-4-oxo-] has an IC50 of at least 1 µM. Work on “Pyrimido[2,1-c][1,4]oxazine-2- carboxamide, N-[(1,3-diphenyl- 1H-pyrazol-4-yl)methyl]-4,6,7,9- tetrahydro-3-hydroxy-9,9- dimethyl-4-oxo- [Example 66]” yielded an IC50 of 0.1 to 1 µM. In the case of “Pyrimido[2,1-c][1,4]oxazine-2- carboxamide, N-[(5-chloro-1H- indol-2-yl)methyl]-4,6,7,9- tetrahydro-3-hydroxy-9,9- dimethyl-4-oxo- [Example 62]”, the IC50 is reported as 0.1 to 1 µM. Work on Cc1cc(CNC(=O)c2nc3n(c(=O)c2O)CCOC3(C)C)nn1CCF [Example 20, Pyrimido[2,1-c][1,4]oxazine-2-carboxamide, N-[[1-(2-fluoroethyl)-5-methyl-1H-pyrazol-3-yl]methyl]-4,6,7,9-tetrahydro-3-hydroxy-9,9-dimethyl-4-oxo-] yielded an IC50 of 0.002 to 0.1 µM.
